Values quoted from earlier work, collected in US20260008814A1, “DEVELOPMENT OF PEPTIDES WITH ANTI-CANCER AND ANTIMICROBIAL PROPERTIES” (YILDIZ TEKNIK ÜNIVERSITESI DÖNER SERMAYE ISLETME MÜD, priority 2023, published 2026).

Tested on: F. nucleatum attachment and invasion of HCT116

ASANWTIQYND
inhibition of F. nucleatum attachment and invasion: inhibitory peptide
